Measured values as given in patent US20260217735A1, “HETEROCYCLES AND USES THEREOF” (Kumquat Biosciences Inc., priority 2023, published 2026).

Key:
[1] = tested on: MiaPaca2 cells; assay: Ras cellular assay, growth of cells with K-Ras G12C mutation; assay type: cell-based; conditions: Homo sapiens, MIA PaCa-2; cell proliferation assay; bins ≤500 nM / >500 nM; read-out: Inhibition of MiaPaca2 Cells (IC50)
Experimental: For example, this assay can be also used to assess selective growth inhibition of a mutant Ras protein relative to a wildtype or different mutant Ras protein.
MIA PaCa-2 (ATCC CRL-1420) and NCI-H1792 (ATCC CRL-5895) cell lines comprise a G12C mutation and can be used to assess Ras cellular signaling in vitro, e.g., in response to an inhibitor compound of the present disclosure. […] MIA PaCa-2 culture medium is prepared with DMEM/Ham's F12 (e.g., with stable glutamine, 10% FCS, and 2.5% horse serum. NCI-H1792 culture medium is prepared with RPMI 1640 (e.g., with stable glutamine) and 10% FCS.
On a first day (e.g., Day 1), Softagar (Select Agar, Invitrogen, 3% in ddH2O autoclaved) is boiled and tempered at 48° C. Appropriate culture medium (i.e., medium) is tempered to 37° C. Agar (3%) is diluted 1:5 in medium (=0.6%) and plated into 96 well plates (Corning, #3904), then incubated at room temperature for agar solidification. A 3% agar is diluted to 0.25% in medium (1:12 dilution) and tempered at 42° C. Cells are trypsinized, counted, and tempered at 37° C. The cells (e.g., MIA PaCa-2 at about 125-150 cells, NCI-H1792 at about 1000 cells) are resuspended in […] 0.25% Agar and plated, followed by incubation at room temperature for agar solidification. The wells are overlaid with […] of the medium. Sister wells in a separate plate are plated for time zero determination. All plates are incubated overnight at 37° C. and 5% CO2.
On a second day (e.g., Day 2), time zero values are measured. A […] volume of Cell Titer 96 Aqueous Solution (Promega) is added to each well and incubated in the dark at 37° C. and 5% CO2. Absorption can be measured at 490 nm and reference wavelength 660 nm. DMSO-prediluted test compounds are added to wells of interest, e.g., with HP Dispenser, to one or more desired concentrations (e.g., a final DMSO concentration of 0.3%).
On a tenth day (e.g., Day 10), absorption by wells treated with the test compounds and control wells are measured with, for example, Cell Titer 96 AQueous and analyzed in comparison to the time zero measurements. The IC50 values are determined using the four parameter fit. The resulting IC50 value is a measurement of the ability of the test compound to reduce cell growth of Ras-driven cells (e.g., tumor cell lines) in vitro and/or in vivo.

[2] = target: T1, KRAS G12D (Homo sapiens, UniProt P01116, G12D); assay: HTRF assay, KRAS G12D interaction with SOS1; assay type: biochemical; conditions: bins <500 nM / 500 nM to 1000 nM, read-out: Inhibition of KRAS G12D (IC50)
T1 construct: made in house; host or cells: E. coli, e.g. BL21 (DE3)
T1 sequence (P01116 1-188 isoform P01116-2 G12D): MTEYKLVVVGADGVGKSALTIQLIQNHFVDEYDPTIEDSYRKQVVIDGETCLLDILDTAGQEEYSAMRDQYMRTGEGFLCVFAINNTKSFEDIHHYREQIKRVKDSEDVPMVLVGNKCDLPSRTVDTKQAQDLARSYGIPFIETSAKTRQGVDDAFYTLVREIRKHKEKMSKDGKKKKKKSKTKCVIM
Source text: (§1) This assay can be also used to assess a selective inhibition or reduction of signaling output of a mutant Ras protein relative to a wildtype, or relative to a different mutant Ras protein. For example, the equilibrium interaction of wildtype KRAS or K-Ras mutant (e.g., wildtype or a mutant thereof) with SOS1 (e.g., hSOS1) can be assessed as a proxy or an indication for the ability of a subject compound to bind and inhibit Ras protein. The HTRF assay detects from (i) a fluorescence resonance energy transfer (FRET) donor (e.g., antiGST-Europium) that is bound to GST-tagged K-Ras mutant to (ii) a FRET acceptor (e.g., anti-6His-XL665) bound to a His-tagged hSOSL1.
(§2) The assay buffer can contain ~5 mM HEPES pH 7.4, ~150 mM NaCl, ~1 mM DTT, 0.05% BSA and 0.0025% (v/v) Igepal. A Ras working solution is prepared in an assay buffer containing typically a suitable amount of the protein construct (e.g., GST-tagged K-Ras mutant) and the FRET donor (e.g., antiGST-Eu(K) from Cisbio, France). A SOS1 working solution is prepared in an assay buffer containing suitable amount of the protein construct (e.g., His-hSOS1) and the FRET acceptor (e.g., anti-6His-XL665 from Cisbio, France). A suitable amount of the protein construct will depend on the range of activity or range of IC50 values being detected or under investigation. For detecting an IC50 within a range of 500 nM, the protein constructs of the same range of molarity can be utilized.
(§3) A fixed volume of DMSO with or without test compound is transferred into a 384-well plate. Ras working solution is added to all wells of the test plate. SOS1 working solution is added to all wells except for those that are subsequently filled with inhibitor control solution. Upon incubation for about 10 minutes or longer, the fluorescence is measured with a M1000Pro plate reader (Tecan) using HTRF detection (excitation 337 nm, emission 1: 620 nm, emission 2: 665 nm). Compounds are tested in duplicate at different concentrations (for example, 10 μM, 2.5 μM, 0.63 μM, 0.16 μM, 0.04 μM, 0.01 μM test compound). The ratiometric data (i.e., emission 2 divided by emission 1) is used to calculate IC50 values against Ras using GraphPad Prism (GraphPad software). Signaling output measured in terms of IC50 values can be obtained and a ratio of IC50 against one mutant relative to another mutant can be calculated. For instance, a selective reduction of K-Ras G12S signaling output can be evidenced by a ratio greater than one. In particular, a selective reduction of K-Ras G12S signaling relative to K-Ras WT signaling is evidenced if the ratio of IC50 (against K-Ras WT) to IC50 (against K-Ras G12S) is greater than 1.

[3] = target: T2, KRAS WT (Homo sapiens, UniProt P01116); assay: HTRF assay, wildtype KRAS interaction with SOS1; assay type: biochemical; conditions: bins <500 nM / 500 nM to 1000 nM, read-out: Inhibition of KRAS WT (IC50)
T2 construct: made in house; host or cells: E. coli, e.g. BL21 (DE3)
T2 sequence (P01116 1-188 isoform P01116-2): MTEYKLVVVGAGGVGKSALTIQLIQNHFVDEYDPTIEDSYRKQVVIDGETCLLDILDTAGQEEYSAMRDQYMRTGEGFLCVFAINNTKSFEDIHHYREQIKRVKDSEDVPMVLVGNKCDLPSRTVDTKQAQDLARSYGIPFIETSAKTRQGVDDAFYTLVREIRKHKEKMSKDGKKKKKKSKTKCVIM
Source text: as §1, §2, §3

[4] = target: T3, KRAS G12S (Homo sapiens, UniProt P01116, G12S); assay: HTRF assay, KRAS G12S interaction with SOS1; assay type: biochemical; conditions: bins <500 nM / 500 nM to 1000 nM, read-out: Inhibition of KRAS G12S (IC50)
T3 construct: made in house; host or cells: E. coli, e.g. BL21 (DE3)
T3 sequence (P01116 1-188 isoform P01116-2 G12S): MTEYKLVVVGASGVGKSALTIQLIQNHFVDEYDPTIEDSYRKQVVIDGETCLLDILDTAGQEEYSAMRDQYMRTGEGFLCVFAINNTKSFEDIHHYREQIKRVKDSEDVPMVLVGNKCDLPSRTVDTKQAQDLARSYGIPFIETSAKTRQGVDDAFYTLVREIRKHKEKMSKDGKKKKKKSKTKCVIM
Source text: as §1, §2, §3

[5] = target: T4, KRAS G12V (Homo sapiens, UniProt P01116, G12V); assay: HTRF assay, KRAS G12V interaction with SOS1; assay type: biochemical; conditions: bins <500 nM / 500 nM to 1000 nM, read-out: Inhibition of KRAS G12V (IC50)
T4 construct: made in house; host or cells: E. coli, e.g. BL21 (DE3)
T4 sequence (P01116 1-188 isoform P01116-2 G12V): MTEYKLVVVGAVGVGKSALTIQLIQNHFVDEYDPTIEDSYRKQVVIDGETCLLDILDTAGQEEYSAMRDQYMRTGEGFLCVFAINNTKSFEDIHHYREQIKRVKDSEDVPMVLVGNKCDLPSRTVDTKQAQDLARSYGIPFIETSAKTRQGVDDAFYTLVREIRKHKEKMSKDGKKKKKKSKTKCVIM
Source text: as §1, §2, §3

IC50 [1] | IC50 [2] | IC50 [3] | IC50 [4] | IC50 [5] | SMILES
≤ 500 nM | < 500 nM | < 500 nM | < 500 nM | < 500 nM | Cc1ncn(C(=O)N2CC[C@@H](N(C)c3nc(OC[C@@]45CCCN4C[C@H](F)C5)nc4c(F)c(-c5ccc(F)c6sc(N)c(C#N)c56)c(Cl)cc34)[C@H]2C)c1C [Compound 180, 2-amino-4-(6-chloro-4-(((2R,3R)-1-(4,5-dimethyl-1H-imidazole-1-carbonyl)-2-methylpyrrolidin-3-yl)(methyl)amino)-8-fluoro-2-(((2R,7aS)-2-fluorotetrahydro-1H-pyrrolizin-7a(5H)-yl)methoxy)quinazolin-7-yl)-7-fluorobenzo[b]thiophene-3-carbonitrile]
≤ 500 nM | < 500 nM | < 500 nM | < 500 nM | < 500 nM | Cc1c(C#N)ncn1C(=O)N1CC[C@@H](N(C)c2nc(OC[C@@]34CCCN3C[C@H](F)C4)nc3c(F)c(-c4ccc(F)c5sc(N)c(C#N)c45)c(Cl)cc23)[C@H]1C [Compound 141, 1-((2R,3R)-3-((7-(2-amino-3-cyano-7-fluorobenzo[b]thiophen-4-yl)-6-chloro-8-fluoro-2-(((2R,7aS)-2-fluorotetrahydro-1H-pyrrolizin-7a(5H)-yl)methoxy)quinazolin-4-yl)(methyl)amino)-2-methylpyrrolidine-1-carbonyl)-5-methyl-1H-imidazole-4-carbonitrile]
≤ 500 nM | < 500 nM | < 500 nM | < 500 nM | < 500 nM | C[C@@H]1[C@H](N(C)c2nc(OC[C@@]34CCCN3C[C@H](F)C4)nc3c(F)c(-c4ccc(F)c5sc(N)c(C#N)c45)c(Cl)cc23)CCN1C(=O)n1ccc(F)n1 [Compound 101, 2-amino-4-(6-chloro-8-fluoro-4-(((2R,3R)-1-(3-fluoro-1H-pyrazole-1-carbonyl)-2-methylpyrrolidin-3-yl)(methyl)amino)-2-(((2R,7aS)-2-fluorotetrahydro-1H-pyrrolizin-7a(5H)-yl)methoxy)quinazolin-7-yl)-7-fluorobenzo[b]thiophene-3-carbonitrile]
≤ 500 nM | < 500 nM | < 500 nM | < 500 nM | < 500 nM | Cc1nccn1C(=O)N1CC[C@@]12CCN(c1nc(OC[C@@]34CCCN3C[C@H](F)C4)nc3c(F)c(-c4ccc(F)c5sc(N)c(C#N)c45)c(Cl)cc13)C2 [Compound 116, 2-amino-4-(6-chloro-8-fluoro-2-(((2R,7aS)-2-fluorotetrahydro-1H-pyrrolizin-7a(5H)-yl)methoxy)-4-((R)-1-(2-methyl-1H-imidazole-1-carbonyl)-1,6-diazaspiro[3.4]octan-6-yl)quinazolin-7-yl)-7-fluorobenzo[b]thiophene-3-carbonitrile]
≤ 500 nM | < 500 nM | < 500 nM | < 500 nM | < 500 nM | CCN(c1nc(OC[C@@]23CCCN2C[C@H](F)C3)nc2c(F)c(-c3ccc(F)c4sc(N)c(C#N)c34)c(Cl)cc12)[C@@H]1CCN(C(=O)n2cc(Cl)nc2C)[C@@H]1C [Compound 130, 2-amino-4-(6-chloro-4-(((2R,3R)-1-(4-chloro-2-methyl-1H-imidazole-1-carbonyl)-2-methylpyrrolidin-3-yl)(ethyl)amino)-8-fluoro-2-(((2R,7aS)-2-fluorotetrahydro-1H-pyrrolizin-7a(5H)-yl)methoxy)quinazolin-7-yl)-7-fluorobenzo[b]thiophene-3-carbonitrile]
≤ 500 nM | < 500 nM | < 500 nM | < 500 nM | < 500 nM | CCN(c1nc(OC[C@@]23CCCN2C[C@H](F)C3)nc2c(F)c(-c3ccc(F)c4sc(N)c(C#N)c34)c(Cl)cc12)[C@@H]1CCN(C(=O)n2cc(C#N)nc2C)[C@@H]1C [Compound 102, 1-((2R,3R)-3-((7-(2-amino-3-cyano-7-fluorobenzo[b]thiophen-4-yl)-6-chloro-8-fluoro-2-(((2R,7aS)-2-fluorotetrahydro-1H-pyrrolizin-7a(5H)-yl)methoxy)quinazolin-4-yl)(ethyl)amino)-2-methylpyrrolidine-1-carbonyl)-2-methyl-1H-imidazole-4-carbonitrile]
≤ 500 nM | < 500 nM | < 500 nM | < 500 nM | < 500 nM | C[C@@H]1[C@H](N(C)c2nc(OC[C@@]34CCCN3C[C@H](F)C4)nc3c(F)c(-c4ccc(F)c5sc(N)c(C#N)c45)c(Cl)cc23)CCN1C(=O)n1ccnc1C(F)(F)F [Compound 194, 2-amino-4-(6-chloro-8-fluoro-2-(((2R,7aS)-2-fluorotetrahydro-1H-pyrrolizin-7a(5H)-yl)methoxy)-4-(methyl((2R,3R)-2-methyl-1-(2-(trifluoromethyl)-1H-imidazole-1-carbonyl)pyrrolidin-3-yl)amino)quinazolin-7-yl)-7-fluorobenzo[b]thiophene-3-carbonitrile]
≤ 500 nM | < 500 nM | < 500 nM | < 500 nM | < 500 nM | CCN(c1nc(OC[C@@]23CCCN2C[C@H](F)C3)nc2c(F)c(-c3ccc(F)c4sc(N)c(C#N)c34)c(Cl)cc12)[C@@H]1CCN(C(=O)n2cnc(F)n2)[C@@H]1C [Compound 115, 2-amino-4-(6-chloro-4-(ethyl((2R,3R)-1-(3-fluoro-1H-1,2,4-triazole-1-carbonyl)-2-methylpyrrolidin-3-yl)amino)-8-fluoro-2-(((2R,7aS)-2-fluorotetrahydro-1H-pyrrolizin-7a(5H)-yl)methoxy)quinazolin-7-yl)-7-fluorobenzo[b]thiophene-3-carbonitrile]
